In US10112941B2, “Tricyclic compounds as anticancer agents” (BRISTOL-MYERS SQUIBB COMPANY, priority 2013, dated 2018):
pIC50: −log10 of the molar value.

What follows are compounds tested against BRD4 (Homo sapiens, UniProt O60885) (assay: Time Resolved Fluorescence Resonance Energy Transfer (TR-FRET) binding assay, BRD4). Conditions: one of the FRET assays described; read-out: FRET BRD4 IC50.
Compound `[2H]C([2H])([2H])Oc1nnn(C([2H])([2H])[2H])c1-c1cnc2c3ccc(C(C)(C)O)cc3n([C@H](c3ccccc3)C3CCOCC3)c2c1` [Example 380, 2-{3-[4-(^2H3)Methoxy-1-(^2H3)methyl-1H-1,2,3-triazol-5-yl]-5-[(S)-oxan-4-yl(phenyl)methyl]-5H-pyrido[3,2-b]indol-7-yl}propan-2-ol] has a pIC50 greater than 8.30.
Compound `[2H]C([2H])([2H])c1nnn(C)c1-c1cnc2c3ccc(C(C)(C)O)c(F)c3n(C(c3cc(C)on3)C3CCOCC3)c2c1` (single isomer, unassigned) [Example 314] has a pIC50 greater than 8.30.
Compound `Cc1nnn(C)c1-c1cnc2c3ccc(C(C)(C)NS(C)(=O)=O)c(F)c3n([C@H](c3ccccc3)C3CCOCC3)c2c1` [Example 463, N-{2-[3-(Dimethyl-1H-1,2,3-triazol-5-yl)-6-fluoro-5-[(S)-oxan-4-yl(phenyl)methyl]-5H-pyrido[3,2-b]indol-7-yl]propan-2-yl}methanesulfonamide] has a pIC50 greater than 8.30.
With `[2H]C([2H])([2H])c1nnn(C)c1-c1cnc2c3ccc(C(C)(C)O)cc3n(C(c3ccccc3)C3CCC(F)(F)CC3)c2c1` (centres unmarked) [Example 204, 2-{5-[(4,4-Difluorocyclohexyl)(phenyl)methyl]-3-[4-(^2H3)methyl-1-methyl-1H-1,2,3-triazol-5-yl]-5H-pyrido[3,2-b]indol-7-yl}propan-2-ol] the pIC50 was greater than 8.30.
`Cc1n[nH]cc1-c1cnc2c3ccc(S(C)(=O)=O)cc3n([C@H](c3ccccc3)C3CCOCC3)c2c1` [Example 455, 4-{7-Methanesulfonyl-5-[(S)-oxan-4-yl(phenyl)methyl]-5H-pyrido[3,2-b]indol-3-yl}-3-methyl-1H-pyrazole] gave a pIC50 greater than 7.60.
With `Cc1nnn(C)c1-c1cnc2c3ccc(C(C)(C)O)c(F)c3n(C(c3ccccc3)C3CCOCC3)c2c1` (single isomer, unassigned) [Example 71, 2-[3-(Dimethyl-1H-1,2,3-triazol-5-yl)-6-fluoro-5-[oxan-4-yl(phenyl)methyl]-5H-pyrido[3,2-b]indol-7-yl]propan-2-ol] the pIC50 was greater than 8.30.
With `Cc1noc(C)c1-c1cnc2c3ccc(S(C)(=O)=O)cc3n(C(CCC(F)(F)F)c3ccccc3)c2c1` (single isomer, unassigned) [Example 38, 4-[7-Methanesulfonyl-5-(4,4,4-trifluoro-1-phenylbutyl)-5H-pyrido[3,2-b]indol-3-yl]-3,5-dimethyl-1,2-oxazole] the pIC50 was greater than 7.60.
`[2H]C([2H])([2H])c1nnn(C)c1-c1cnc2c3c(NS(=O)(=O)C4CC4)ccc(S(C)(=O)=O)c3n([C@H](c3ccccc3)C3CCOCC3)c2c1` [Example 222, N-{6-Methanesulfonyl-3-[4-(^2H3)methyl-1-methyl-1H-1,2,3-triazol-5-yl]-5-[(S)-oxan-4-yl(phenyl)methyl]-5H-pyrido[3,2-b]indol-9-yl}cyclopropanesulfonamide] was tested, and the pIC50 was greater than 8.30.
`Cc1noc(C)c1-c1cnc2c3ccc(C(C)(C)O)cc3n(Cc3ccccc3)c2c1` [Example 46, 2-[5-Benzyl-3-(dimethyl-1,2-oxazol-4-yl)-5H-pyrido[3,2-b]indol-7-yl]propan-2-ol] showed a pIC50 greater than 5.82.
Work on `Cc1nnn(C)c1-c1cnc2c3ccc(C(C)(C)O)cc3n(C(c3cc(F)cc(F)c3)C3CCOCC3)c2c1` (single isomer, unassigned) [Example 98, 2-{5-[(3,5-Difluorophenyl)(oxan-4-yl)methyl]-3-(dimethyl-1H-1,2,3-triazol-5-yl)-5H-pyrido[3,2-b]indol-7-yl}propan-2-ol] yielded a pIC50 greater than 8.30.
For `COc1ccc(S(C)(=O)=O)c2c1c1ncc(-c3c(C)nnn3C)cc1n2[C@H](c1ccc(F)cc1)C1CCOCC1` [Example 190, 5-{5-[(S)-(4-Fluorophenyl)(oxan-4-yl)methyl]-6-methanesulfonyl-9-methoxy-5H-pyrido[3,2-b]indol-3-yl}-1,4-dimethyl-1H-1,2,3-triazole], the pIC50 was greater than 8.30.
`[2H]C([2H])([2H])c1nnn(C)c1-c1cnc2c3c(OC)ccc(S(C)(=O)=O)c3n([C@H](c3ccccc3F)C3CCOCC3)c2c1` [Example 189, 5-{5-[(S)-(2-Fluorophenyl)(oxan-4-yl)methyl]-6-methanesulfonyl-9-methoxy-5H-pyrido[3,2-b]indol-3-yl}-4-(^2H3)methyl-1-methyl-1H-1,2,3-triazole] was tested, and the pIC50 was greater than 8.30.
Work on `[2H]C([2H])([2H])c1nnn(C)c1-c1cnc2c3ccc(C(C)(C)O)c(F)c3n(C(c3ncccc3F)C3CCOCC3)c2c1` (single isomer, unassigned) [Example 458] yielded a pIC50 greater than 8.30.
Compound `Cc1oncc1-c1cnc2c3ccc(C(C)(C)O)cc3n(C(c3ccc(F)cc3)C3CCOCC3)c2c1` (single isomer, unassigned) [Example 41, 2-{5-[(4-Fluorophenyl)(oxan-4-yl)methyl]-3-(5-methyl-1,2-oxazol-4-yl)-5H-pyrido[3,2-b]indol-7-yl}propan-2-ol] has a pIC50 greater than 5.82.
In the case of `Cc1noc(C)c1-c1cnc2c3ccccc3n(Cc3ccccc3)c2c1` [Example 51, 4-(5-Benzyl-5H-pyrido[3,2-b]indol-3-yl)-3,5-dimethyl-1,2-oxazole], the pIC50 was greater than 5.82.
In the case of `[2H]C([2H])([2H])Oc1nnn(C)c1-c1cnc2c3ccc(NC(=O)OC(C)C)cc3n([C@H](c3ccccc3)C3CCOCC3)c2c1` [Example 392, Propan-2-yl N-{3-[4-(^2H3)methoxy-1-methyl-1H-1,2,3-triazol-5-yl]-5-[(S)-oxan-4-yl(phenyl)methyl]-5H-pyrido[3,2-b]indol-7-yl}carbamate], the pIC50 was greater than 8.30.
`Cc1nnn(C)c1-c1cnc2c3ccc(C(C)(C)O)c(F)c3n(C(c3ncccc3F)C3CCOCC3)c2c1` (single isomer, unassigned) [Example 305] gave a pIC50 greater than 8.30.
`[2H]C([2H])([2H])c1nnn(C)c1-c1cnc2c3c(F)ccc(S(C)(=O)=O)c3n([C@H](c3ccccc3F)C3CCOCC3)c2c1` [Example 231, 5-{9-Fluoro-5-[(S)-(2-fluorophenyl)(oxan-4-yl)methyl]-6-methanesulfonyl-5H-pyrido[3,2-b]indol-3-yl}-4-(^2H3)methyl-1-methyl-1H-1,2,3-triazole] showed a pIC50 greater than 8.30.
With `Cc1nnn(C)c1-c1cnc2c3ccc(NC(=O)OCCC(F)(F)F)cc3n([C@H](c3ccccc3)C3CCOCC3)c2c1` [Example 364, 3,3,3-Trifluoropropyl N-[3-(dimethyl-1H-1,2,3-triazol-5-yl)-5-[(S)-oxan-4-yl(phenyl)methyl]-5H-pyrido[3,2-b]indol-7-yl]carbamate] the pIC50 was greater than 8.30.
`Cc1nnn(C)c1-c1cnc2c3c(F)cc(C(C)(C)O)cc3n(C(c3c(F)cc(F)cc3F)C3CCOCC3)c2c1` (single isomer, unassigned) [Example 104, 2-[3-(Dimethyl-1H-1,2,3-triazol-5-yl)-9-fluoro-5-[oxan-4-yl(2,4,6-trifluorophenyl)methyl]-5H-pyrido[3,2-b]indol-7-yl]propan-2-ol] was tested, and the pIC50 was greater than 8.30.
`Cn1nncc1-c1cnc2c3ccc(C(C)(C)O)cc3n(C(c3ccc(F)cc3)C3CCOCC3)c2c1` (single isomer, unassigned) [Example 66, 2-{5-[(4-Fluorophenyl)(oxan-4-yl)methyl]-3-(1-methyl-1H-1,2,3-triazol-5-yl)-5H-pyrido[3,2-b]indol-7-yl}propan-2-ol] gave a pIC50 greater than 8.30.
`Cc1noc(C)c1-c1cnc2c3ccc(C(C)(C)O)cc3n([C@H](CCC(F)(F)F)c3ccccn3)c2c1` [Example 24] showed a pIC50 greater than 5.82.
For `Cc1nnn(C)c1-c1cnc2c3c(F)cc(C(C)(C)O)cc3n([C@H](c3ccccc3F)C3CCOCC3)c2c1` [Example 114, 2-[3-(Dimethyl-1H-1,2,3-triazol-5-yl)-9-fluoro-5-[(S)-(2-fluorophenyl)(oxan-4-yl)methyl]-5H-pyrido[3,2-b]indol-7-yl]propan-2-ol], the pIC50 was greater than 8.30.
`[2H]C([2H])([2H])c1nnn(C)c1-c1cnc2c3c(F)ccc(S(C)(=O)=O)c3n(C(c3ncccc3F)C3CCOCC3)c2c1` (centres unmarked) [Example 235, 3-Fluoro-2-({9-fluoro-6-methanesulfonyl-3-[4-(^2H3)methyl-1-methyl-1H-1,2,3-triazol-5-yl]-5H-pyrido[3,2-b]indol-5-yl}(oxan-4-yl)methyl)pyridine] was tested, and the pIC50 was greater than 8.30.
With `Cc1nnn(C)c1-c1cnc2c3ccc(C(C)(C)O)cc3n(C(c3ccccc3)C3CCC(F)(F)CC3)c2c1` (single isomer, unassigned) [Example 206] the pIC50 was greater than 8.30.
Work on `Cc1nnn(C)c1-c1cnc2c3ccc(C(C)(C)O)cc3n(C(CC3CC3)C3CCOCC3)c2c1` (single isomer, unassigned) [Example 395] yielded a pIC50 greater than 8.30.
Work on `COc1ccc(C(C2CCOCC2)n2c3cc(C(C)(C)O)ccc3c3ncc(-c4c(C)nnn4C)cc32)c(F)c1` (single isomer, unassigned) [Example 120, 2-[3-(Dimethyl-1H-1,2,3-triazol-5-yl)-5-[(2-fluoro-4-methoxyphenyl)(oxan-4-yl)methyl]-5H-pyrido[3,2-b]indol-7-yl]propan-2-ol] yielded a pIC50 greater than 8.30.
`Cc1noc(C)c1-c1cnc2c3ccc(C(C)(C)O)cc3n(C(c3cc(F)ccc3F)C3CCOCC3)c2c1` (single isomer, unassigned) [Example 140, 2-{5-[(2,5-Difluorophenyl)(oxan-4-yl)methyl]-3-(dimethyl-1,2-oxazol-4-yl)-5H-pyrido[3,2-b]indol-7-yl}propan-2-ol] was tested, and the pIC50 was greater than 8.30.
For `Cc1cccnc1C(C1CCOCC1)n1c2cc(C(C)(C)O)ccc2c2ncc(-c3c(C)nnn3C)cc21` (single isomer, unassigned) [Example 301], the pIC50 was greater than 8.30.
Work on `[2H][C@@](c1ccccc1)(C1CCOCC1)n1c2cc(C(C)(C)O)ccc2c2ncc(-c3c(C)nnn3C)cc21` [Example 90, 2-[3-(Dimethyl-1H-1,2,3-triazol-5-yl)-5-[(S)-oxan-4-yl(phenyl)(^2H)methyl]-5H-pyrido[3,2-b]indol-7-yl]propan-2-ol] yielded a pIC50 greater than 8.30.
Work on `Cc1noc(C)c1-c1cnc2c3c(F)cc(C(C)(C)O)cc3n([C@H](c3ccccc3)C3CCOCC3)c2c1` [Example 370, 2-[3-(Dimethyl-1,2-oxazol-4-yl)-9-fluoro-5-[(S)-oxan-4-yl(phenyl)methyl]-5H-pyrido[3,2-b]indol-7-yl]propan-2-ol] yielded a pIC50 greater than 8.30.
`Cc1nnn(C)c1-c1cnc2c3ccc(C(C)(C)O)cc3n(C(c3ccc(F)cc3F)C3CCOCC3)c2c1` (single isomer, unassigned) [Example 135, 2-{5-[(2,4-Difluorophenyl)(oxan-4-yl)methyl]-3-(dimethyl-1H-1,2,3-triazol-5-yl)-5H-pyrido[3,2-b]indol-7-yl}propan-2-ol] showed a pIC50 greater than 8.30.
